Test results taken from patent US12486259B2, “FXR agonist having pyrazine structure, and preparation method and use” (JIANGSU TASLY DIYI PHARMACEUTICAL CO., LTD., priority 2020, dated 2025).

What was measured:
[1] = in vitro; settings: human; for efflux ratio: Caco-2; for Papp B→A: Caco-2, Papp B-A; for recovery: Caco-2, Recovery rate A-B
Procedure: The bi-directional transport of target compounds from apical side (AP) to basolateral side (BL) and from BL side to AP side is studied by using human colon adenocarcinoma cell line Caco-2 monolayer model. The transport parameters, apparent permeability coefficient (Papp) and efflux ratio are calculated by quantitative analysis with high performance liquid chromatography (HPLC).

[2] = tested on: C57/BL6 mice fed MCD diet; assay: Pharmacodynamic test in methionine-choline deficient diet (MCD) model of non-alcoholic fatty liver disease; type: in vivo; settings: for Weight, 0 week / Food intake, 1 week / Weight, 1 week / Food intake, 2 weeks / Weight, 2 weeks / Food intake, 3 weeks / Weight, 3 weeks / Food intake, 4 weeks / Weight, 4 week / liver weight / liver/body weight / ALT, 3 weeks / AST, 3 weeks / ALT, 4 weeks / AST, 4 weeks / HDL (blood lipid) / LDL (blood lipid) / TC (blood lipid) / TG (blood lipid) / HE score / Sirius red staining area / liver TC / liver TG: MCD mice, obeticholic acid 40 mpk; for Weight, 0 week / Weight, 1 week / Weight, 2 weeks / Weight, 3 weeks / Weight, 4 week: TM compounds 30 mpk, once daily by gavage; for Food intake, 1 week / Food intake, 2 weeks / Food intake, 3 weeks / Food intake, 4 weeks / liver weight / liver/body weight / ALT, 3 weeks / AST, 3 weeks / ALT, 4 weeks / AST, 4 weeks / HDL (blood lipid) / LDL (blood lipid) / TC (blood lipid) / TG (blood lipid) / HE score / Sirius red staining area / liver TC / liver TG: TM 30 mpk; for Food intake, 1 week / Food intake, 2 weeks / Food intake, 3 weeks / Food intake, 4 weeks / ALT, 3 weeks / AST, 3 weeks / ALT, 4 weeks / AST, 4 weeks: gavage; for Food intake, 4 weeks / Weight, 4 week / ALT, 4 weeks / AST, 4 weeks / HE score / Sirius red staining area: 4 weeks; for liver weight / liver/body weight / HDL (blood lipid) / LDL (blood lipid) / TC (blood lipid) / TG (blood lipid) / liver TC / liver TG: after 4 weeks; for ALT, 3 weeks / AST, 3 weeks / ALT, 4 weeks / AST, 4 weeks / HDL (blood lipid) / LDL (blood lipid) / TC (blood lipid) / TG (blood lipid): blood; for HE score: liver pathology score (Table 12 criteria); for Sirius red staining area / liver TC / liver TG: liver; for blood lipid levels (in words) / liver triglyceride and cholesterol content (in words) / liver weight and liver/body weight (in words): after 4 weeks of MCD and compounds treatment; for ALT and AST compared to the model group (in words): three weeks after MCD and compounds treatment
Procedure: Animal strain: C57/BL6, Animal Grade: SPF Grade, Gender: male, Animal Age: 8 weeks old, Animals Received Date: 2018 Sep. 28, Animal Source: Shanghai Lingchang Biotechnology Co. Ltd., Animal Certificate No: SCXK (Shanghai)2013-0018 2013001836799, Mouse feeding Environment: temperature 20-26° C., humidity 40-70%, 12 hour day and night cycle.
5% Solutol HS15/Normal saline: after Solutol HS15 (polyethylene glycol 15 hydroxystearate solubilizer) is dissolved in a water bath at 37° C., 5 ml of it is dissolved in 100 ml of normal saline, thoroughly stirred for later use.
Obeticholic acid/5% Solutol HS15/Normal saline: 0.15 ml Solutol HS15 is added to accurately weighed 12 mg obeticholic acid to fully dissolve it, and 2.85 ml normal saline is added, vigorously mixed and dissolved by the ultrasound. • TM-01 Group/5% Solutol HS15/Normal saline: 2.5 ml of 6 mg/ml TM-01 suspension is taken, 2.5 ml of 5% Solutol HS15/normal saline is added, and the mixture is mixed well. • TM-02 Group/5% Solutol HS15/Normal saline: 2.5 ml of 6 mg/ml TM-02 suspension is taken, 2.5 ml of 5% Solutol HS15/normal saline is added, and the mixture is mixed well. • TM-06 Group/5% Solutol HS15/Normal saline: 2.5 ml of 6 mg/ml TM-06 suspension is taken, 2.5 ml of 5% Solutol HS15/Normal saline is added, and the mixture is mixed well. • TM-09 Group/5% Solutol HS15/Normal saline: 2.5 ml of 6 mg/ml TM-09 suspension is taken, 2.5 ml of 5% Solutol HS15/Normal saline is added, and the mixture is mixed well.
Menstruum and test compounds are administered by gavage at a dose volume of 10 ml/kg;
After reaching the animal house, 70 8-week-old C57/BL6 mice are fed adaptively and randomly divided into 7 groups according to body weight after the average body weight reaches 23 g. They are given the model feed. The first group receives the control diet MCS and the remaining groups receive the MCD diet, while each group of mice receives compound treatment as follows: • Group 1. Control Group: MCS, menstruum, administered once daily by gavage; • Group 2. Model Group: MCD, menstruum, administered once daily by gavage; • Group 3. Obeticholic acid group: MCD, 40 mpk obeticholic acid, administered once daily by gavage; • Group 4. TM-01 Group: MCD, 30 mpk TM-01, administered once daily by gavage; • Group 5. TM-02 Group: MCD, 30 mpk TM-02, administered once daily by gavage; • Group 6. TM-06 Group: MCD, 30 mpk TM-06, administered once daily by gavage; • Group 7. TM-09 Group: MCD, 30 mpk TM-09, administered once daily by gavage; 2.4 Experimental Methods
Body weight and food intake are measured weekly during the experiment. Twenty-one days after administration, tail tips are bled with microcapillaries for AST, ALT measurements. Twenty-eight days after administration, mice are terminated, hearts are bled, and liver tissues are collected and weighed. One portion is snap frozen with liquid nitrogen for subsequent analysis and the other portion are fixed for pathological analysis.
Mouse blood is centrifuged at 5000 rpm for 10 minutes and supernatants are collected for determination of TG (triglycerides), TC (total cholesterol), HDL (high density lipoprotein), LDL (low density lipoprotein), AST (aspartate aminotransferase) and ALT (alanine aminotransferase).
AST and ALT after administration for three and four weeks are determined according to the instructions of kit. The blood lipid index 4 weeks after administration is sent to Adicon Medical Laboratory Co. Ltd. for detection.
The livers are removed from −80° C., homogenized in PBS (phosphate buffered saline), extracted with chloroform methanol organic phase, and subjected to TC and TG assays using the kit, normalized for protein content.
Four weeks after administration, the mice are anesthetized. The heart is bled, the liver is isolated and weighed. The right lobe is snapfrozen with liquid nitrogen and stored at −80° C. for liver lipid analysis. The left lobe is isolated and fixed in 10% formalin for subsequent HE and Sirius Red staining. […]

[3] = Caco-2, Papp, A-to-B values (highly permeable substrates)

efflux ratio [1] | Papp A→B ([1]; Caco-2, Papp A-B) [×10⁻⁶ cm/s] | Papp A→B ([1]; Caco-2, Papp A-B, Average) [×10⁻⁶ cm/s] | Papp A→B ([1]; Caco-2, Papp A-B, Sample-01) [×10⁻⁶ cm/s] | Papp A→B ([1]; Caco-2, Papp A-B, Sample-02) [×10⁻⁶ cm/s] | Papp B→A [1] [×10⁻⁶ cm/s] | Papp A→B [1, 3] [×10⁻⁶ cm/s] | recovery ([1]; Average) [%] | recovery ([1]; Sample-01) [%] | recovery ([1]; Sample-02) [%] | Weight, 0 week [2] [g] | Food intake, 1 week [2] [g] | Weight, 1 week [2] [g] | Food intake, 2 weeks [2] [g] | Weight, 2 weeks [2] [g] | Food intake, 3 weeks [2] [g] | Weight, 3 weeks [2] [g] | Food intake, 4 weeks [2] [g] | Weight, 4 week [2] [g] | Compound | liver weight [2] [g] | further results
5.12 | 7.54 | 7.17 | 7.86 | 6.48 | 38.6 | > 2.5 | 74.2 | 81 | 67.3 | 23.75 ± 0.27 | 2.356 ± 0.213 | 21.36 ± 0.27 | 2.664 ± 0.194 | 18.29 ± 0.28 | 2.093 ± 0.250 | 16.41 ± 0.25 | 1.932 ± 0.137 | 15.70 ± 0.22 | CC(C)c1onc(-c2c(Cl)cccc2Cl)c1COc1cnc(C2(O)CC(c3cccc(C(=O)O)c3)C2)cn1 (stereo not drawn) [TM-06, 3-(3-(5-(5-isopropyl-3-(2,6-dichlorophenyl)isoxazole-4-ylmethoxy)-2-pyrazine)-1-hydroxycyclobutane) benzoic acid] | 0.67 ± 0.03 | liver/body weight [2]: 4.23 ± 0.13 %; ALT, 3 weeks [2]: 48.97 ± 26.07 U/L; AST, 3 weeks [2]: 52.14 ± 18.73 U/L; ALT, 4 weeks [2]: 49.13 ± 33.04 U/L; AST, 4 weeks [2]: 45.23 ± 13.21 U/L; HDL (blood lipid) [2]: 0.42 ± 0.06 mmol/L; LDL (blood lipid) [2]: 3.01 ± 0.09 mmol/L; TC (blood lipid) [2]: 0.97 ± 0.16 mmol/L; TG (blood lipid) [2]: 0.59 ± 0.02 mmol/L; HE score [2]: 1.6; Sirius red staining area [2]: 0.421 ± 0.081%; liver TC [2]: 38.2 ± 35 µmol/g protein; liver TG [2]: 304 ± 46.5 µmol/g protein; blood lipid levels (in words) [2]: different reductions in blood lipids; liver triglyceride and cholesterol content (in words) [2]: different lowering effects; liver weight and liver/body weight (in words) [2]: significantly increases mouse liver weight and liver/body weight; ALT and AST compared to the model group (in words) [2]: significantly reduced
3.75 | 8.87 | 9.02 | 8.57 | 9.47 | 33.3 | > 2.5 | 70.8 | 64.9 | 76.8 | 23.71 ± 0.35 | 2.190 ± 0.504 | 21.52 ± 0.42 | 2.400 ± 0.288 | 18.81 ± 0.49 | 1.688 ± 0.266 | 16.69 ± 0.34 | 1.518 ± 0.376 | 15.48 ± 0.35 | O=C(O)c1cccc(N2CC(O)(c3cnc(OCc4c(-c5c(Cl)cccc5Cl)noc4C4CC4)cn3)C2)c1 [TM-02, 3-(3-(5-((5-cyclopropyl-3-(2,6-dichlorophenyl)isoxazol-4-yl)methoxy)pyrazine-2-yl)-3-hydroxyazetidin-1-yl) benzoic acid] | 0.85 ± 0.05 | liver/body weight [2]: 5.48 ± 0.28 %; ALT, 3 weeks [2]: 183.36 ± 29.85 U/L; AST, 3 weeks [2]: 113.46 ± 13.79 U/L; ALT, 4 weeks [2]: 90.68 ± 42.13 U/L; AST, 4 weeks [2]: 83.24 ± 12.08 U/L; HDL (blood lipid) [2]: 0.61 ± 0.02 mmol/L; LDL (blood lipid) [2]: 2.93 ± 0.12 mmol/L; TC (blood lipid) [2]: 1.25 ± 0.14 mmol/L; TG (blood lipid) [2]: 0.57 ± 0.06 mmol/L; HE score [2]: 1.4; Sirius red staining area [2]: 0.398 ± 0.030%; liver TC [2]: 41.7 ± 5.73 µmol/g protein; liver TG [2]: 307 ± 26.3 µmol/g protein; blood lipid levels (in words) [2]: different reductions in blood lipids; liver triglyceride and cholesterol content (in words) [2]: different lowering effects; liver weight and liver/body weight (in words) [2]: significantly increases mouse liver weight and liver/body weight; ALT and AST compared to the model group (in words) [2]: showing the same way as the obeticholic acid group
4.22 | 6.91 | 8.75 | 8.46 | 9.05 | 29.2 | > 2.5 | 81.4 | 80.9 | 82 | 23.60 ± 0.29 | 2.364 ± 0.186 | 21.26 ± 0.34 | 2.707 ± 0.187 | 19.29 ± 0.39 | 2.284 ± 0.342 | 17.18 ± 0.31 | 2.109 ± 0.661 | 15.90 ± 0.31 | Cc1cc(C(=O)O)cc(C2CC(O)(c3cnc(OCc4c(-c5c(Cl)cccc5Cl)noc4C(C)C)cn3)C2)c1 (stereo not drawn) [TM-09, 3-(3-(5-((3-(2,6-dichlorophenyl)-5-isopropylisoxazol-4-yl)methoxy)pyrazine-2-yl)-3-hydroxycyclobutyl)-5-methyl benzoic acid] | 0.74 ± 0.04 | liver/body weight [2]: 4.98 ± 0.25 %; ALT, 3 weeks [2]: 40.27 ± 21.48 U/L; AST, 3 weeks [2]: 45.04 ± 12.08 U/L; ALT, 4 weeks [2]: 14.30 ± 4.19 U/L; AST, 4 weeks [2]: 38.40 ± 4.19 U/L; HDL (blood lipid) [2]: 0.56 ± 0.02 mmol/L; LDL (blood lipid) [2]: 2.52 ± 0.07 mmol/L; TC (blood lipid) [2]: 0.86 ± 0.09 mmol/L; TG (blood lipid) [2]: 0.54 ± 0.04 mmol/L; HE score [2]: 1.1; Sirius red staining area [2]: 0.392 ± 0.057 %; liver TC [2]: 37.7 ± 3.65 µmol/g protein; liver TG [2]: 232 ± 18.4 µmol/g protein; blood lipid levels (in words) [2]: different reductions in blood lipids; liver triglyceride and cholesterol content (in words) [2]: significant lowering effect on liver triglyceride and cholesterol levels; liver weight and liver/body weight (in words) [2]: significantly increases mouse liver weight and liver/body weight; ALT and AST compared to the model group (in words) [2]: significantly reduced
